# Experimental data: patent publication US20040039059A1, “Use of n,n' -dibenzyl ethylene diamine-n, n'- diacetic acid derivatives as anti-pollution agent” (priority 2000, published 2004)
# Tested on: human keratinocytes
# Experiment: Neutral red incorporation test: cytotoxicity of cadmium chloride on human keratinocytes in culture, with or without protecting agent
# Type: cell-based
# Conditions: for protection of cells against the toxicity of cadmium chloride (in words): protecting agent at 50 and 100 μM
# Method: The cytotoxic effect of cadmium on human keratinocytes in culture was evaluated by means of a technique of measuring the cell viability, known as the neutral red incorporation test (E. Borenfreund and J. A. Puerner, Tissue Culture Methods. 1984, 9: 7-9).
# The study was performed on a monolayer culture of human keratinocytes obtained from plastic surgeries. The cells are inoculated on D-3 into 96-well culture dishes at a rate of 25 000 cells/cm^2 in 100 μl of culture medium (calf serum-free defined medium, NR2, Biofluids). The incubations are performed in an incubator at 37° C. under a humid atmosphere enriched with 5% CO2.
# The cells are treated for 24 hours with increasing concentrations (0, 10, 25, 50, 75, 100, 150 and 200 μM) of cadmium chloride (CdCl2) alone, so as to determine its cytotoxicity. In parallel, a treatment is performed under the same conditions, but in the presence of N,N′-bis(3,4,5-trimethoxybenzyl)ethylenediamine-N,N′-diacetic acid (100 and 50 μm). The incubations are performed in an incubator at 37° C., [lacuna] % CO2 under a humid atmosphere.
# At the end of the period of contact, a neutral red incorporation test is performed and the results are read on a spectrophotometer at 550 nm.
# To do this, the cells are rinsed with PBS buffer in order to remove the treatment solutions; 100 μl per well of a 0.5 mg/ml neutral red solution are added to the culture medium; the mixture is incubated at 37° C. and 5% CO2, under a humid atmosphere, for three hours; the resulting mixture is rinsed with PBS; fixing is performed with formaldehyde/calcium solution for one minute; the neutral red is extracted with 100 μl/well of ethanol-acetic acid solution; the optical density is read on the spectrophotometer at 550 nm and the CdCl2 concentration, resulting in a 50% reduction in viability=IC-50, is calculated.
Compound,protection of cells against the toxicity of cadmium chloride (in words) (human keratinocytes),"protection of cells against the toxicity of cadmium chloride (in words) (human keratinocytes, listed as N,N′-dimethylethylenediamine-N,N′-diacetic acid)",factor by which the cytotoxicity of cadmium chloride decreases (protecting agent at 50 μM),factor by which the cytotoxicity of cadmium chloride decreases (protecting agent at 100 μM),"IC50 (CdCl2 alone, 24 hours, human keratinocytes, neutral red, concentration giving 50% drop in cell viability, read-out: IC.50 of cadmium chloride without protecting agent (Mean ± SEM))"
"COc1cc(CN(CCN(CC(=O)O)Cc2cc(OC)c(OC)c(OC)c2)CC(=O)O)cc(OC)c1OC [N,N′-bis(3,4,5-trimethoxybenzyl)ethylenediamine-N,N′-diacetic acid]",significantly protects the cells against the toxicity of this pollutant,cytotoxicity of cadmium chloride decreases significantly,2.3,3.1,
"[Cl][Cd][Cl] [cadmium chloride, reference compound]",,,,,39 µM
